Source: US12691089B2, “Stable levothyroxine compositions in aprotic polar solvents” (Xeris Pharmaceuticals, Inc., priority 2022, dated 2026)

Legend:
[1] = cited from earlier work
[2] = Accelerated stability of 5 mg/mL levothyroxine in (acidified) DMSO: discoloration and RP-HPLC
Description: To attempt to overcome these discoloration and degradation problems, levothyroxine solutions were prepared with either the free acid or the sodium salt of levothyroxine dissolved in acidified DMSO, at a levothyroxine sodium concentration of 5 mg/mL. To prepare acidified DMSO solvents, DMSO was acidified with 0-10 mM H2SO4 (from a 1.0 N H2SO4 stock solution), and samples were stored in 2 mL glass vials (0.5 mL fill volume per vial) and stored at 45° C. upright for 9 days for an accelerated stability analysis without any secondary packaging (e.g., foil pouch). Samples were then photographed (to examine discoloration) and examined via reverse phase HPLC (to examine levothyroxine chemical stability), comparing day 0 samples to day 9 samples (vs. a sample of each formulation that was frozen and held at −20° C. as a “time 0” control).
To determine if the discoloration observed with these formulations correlated with levothyroxine chemical degradation, samples of each vial were assessed via reverse phase HPLC (RP-HPLC).

[3] = Solubility of levothyroxine sodium in DMSO; type: physicochemical; conditions: organic solvent or mixture
Excerpt: However, direct dissolution of levothyroxine sodium in DMSO (with no added excipients) caused rapid visual discoloration and chemical degradation (where the extent of discoloration generally correlates with degradation). […] Additionally, the chemical degradation appeared to be associated with the discoloration of the solution that was observed.

[4] = Storage stability of levothyroxine formulations in acidified DMSO (RP-HPLC T4/T3); type: physicochemical; conditions: 10 mg/mL in DMSO
Description: Based on the results shown above, formulations of levothyroxine sodium were prepared at an acid concentration that promoted chemical stability and a moisture content of at least 4% (w/w). […] The overall moisture content of the formulation was ~5% when prepared using 1.0 N H2SO4. The moisture content of this formulation was due almost entirely to the added sulfuric acid (with a minor contribution from the trehalose dihydrate), which at 26 mM (from a 1.0 N (0.5 M) stock solution) results in a moisture content~5% (w/w). When prepared using concentrated acid (e.g., 10 N), the overall moisture content of the formulation could be reduced to about ~1% without any significant impact on storage stability.
An example of the stability that can be achieved using this formulation approach at multiple temperatures for up to 6 months is shown in Table 1, which represents the purity of T4 (levothyroxine sodium) in the 10 mg/mL, 26-28 mM acid DMSO formulations described above, over time at various storage temperatures. Results shown are measurements of T4 vs. T3 (triiodothyronine, the main degradation product of T4), determined as described above via RP-HPLC. In this table, the higher the percentage of T4 and the lower the percentage of T3, the less degradation observed in the levothyroxine formulations over time.

SMILES: N[C@@H](Cc1cc(I)c(Oc2cc(I)c(O)c(I)c2)c(I)c1)C(=O)O [levothyroxine]
- solubility in water [1]: ≤ 0.1 mg/mL

SMILES: N[C@@H](Cc1cc(I)c(Oc2cc(I)c(O)c(I)c2)c(I)c1)C(=O)O [levothyroxine free acid]
- degradation by RP-HPLC ([2]; 5 mg/mL in DMSO, 0-2 mM H2SO4, 9 days at 45° C.): extensive degradation
- discoloration ([2]; 5 mg/mL in DMSO, 0-10 mM H2SO4, day 0): did not show significant discoloration
- discoloration compared to levothyroxine sodium salt ([2]; 5 mg/mL in DMSO, all concentrations of acid, 9 days at 45° C.): lower amount of discoloration
- sulfuric acid concentration necessary to significantly enhance chemical stability ([2]; 5 mg/mL solution in DMSO, accelerated stability testing): ~ 10 mM

SMILES: N[C@@H](Cc1cc(I)c(Oc2cc(I)c(O)c(I)c2)c(I)c1)C(=O)O [levothyroxine sodium]
- solubility [3]: ≥ 30 mg/mL
- discoloration ([2]; 5 mg/mL in DMSO, 10 mM H2SO4, 9 days at 45° C.): no significant discoloration
- discoloration ([2]; 5 mg/mL in DMSO, H2SO4 below 4 mM, day 0): degradation-associated discoloration fairly quickly
- chemical stability (T4 peak purity) vs acid concentration ([4]; <26 mM sulfuric acid): extensive chemical degradation
- chemical stability (T4 peak purity) vs acid concentration ([4]; above approximate 26 mM acid): chemical stability essentially plateaus
